Test results: patent US5726203A, “Qinghaosu derivatives against AIDS” (priority 1993, dated 1998)
Structures can show the parent of a compound that is named as a salt. Where two headings read alike, the source gives them in different places.

Tests used:
[1] = system: HIV-1 (MT4); assay: Anti-HIV effect on MT4 cells, virus antigen expression (immunoenzymatic method); type: cell-based
From the text: The virus used was HIV-1 which had been obtained from Professor Montagnier of the Pastear Institute, France. The virus titer used in the experiment was 1×10^4 TCID50 /ml. The cell culture used was CEM cell line which was cultivated in the HIV laboratory of Institute of Virology, Chinese Academy of Preventive Medicine, for cultivation storage of HIV-1.
The compounds used in the experiment were qinghaosu, dihydroqinghaosu, Artesunate, Artemether, dihydroqinghaosu-methylcarbamate, dihydroqinghaosu-benzenecarbamate, qinghaosu-morpholinyl propylether maleate, dihydroqinghaosu-diethyl amino ethyl ether maleate, deoxyqinghaosu-morpholinyl ethyl ether maleate, qinghaosu-morpholinyl propanol ether maleate, qinghaosu-3,5-dimonpholinyl methyl-4-hydroxy benzyl ether maleate, dihydroqinghaosu-m-chlorobenzoate, qinghaosu-3-pyrrolidinylmethyl-4-hydroxybenzoate oxalate, and qinghaosu-3-morpholinylmethyl-4-hydroxybenzoate oxalate. […] The concentration of the original solution of these compounds were all 1 mg/ml.
(§1) a. Freshly cultured MT4 cells (5×10^5 /ml) were co-cultivated with the virus fluid (10^3 TCID50 /ml) in a CO2 incubator at 37° C. for 1-1.5 hours. RPMI 1640 complete medium (containing 10% Bovine serum and antibiotics, such as penicillin) was used to wash the unbound virus.
(§2) Complete medium was added to correct the concentration for use.
(§3) The experiment was carried out on the plates with 96 wells. 0.1 ml of the above-mentioned infected MT4 cell suspension was added into each well, and then 0.1 ml of various concentrations of the drugs were added. […] Each concentration of the drugs was added into two wells. Both the experiment group and the control group were incubated in a CO2 incubator at 37° C. The drug solution were changed 3 days later, and the following observations were carried out 6 days afterwards.
b. Observation on the growth situation of cells. Trypan blue dye was used to observe the quantity of live cells in each group.
(§4) c. Determination of the virus antigen expression. The immunoenzymatic method was used to examine the virus antigen expression. Cells from each group were separately smeared in two wells. They were fixed with cold acetone, HIV-positive serum was dropped into the wells. After incubated in a CO2 incubator at 37° C. for 30 minutes, they were washed with PBS for 3 times. Enzyme-labelled SPA was dropped into the wells. They were incubated in the same condition for 30 minutes, washed with PBS for 3 times, and then put in substrate solution to stain for 2-3 minutes, washed with distilled water, and observed under microscope. Normal cells were colorless, whereas virus-carrying cells appeared browrish red.
The mark used were as follows:
The experiment was repeated two to three times.
The concentration of the original fluid of these compounds were all 1 mg/ml. 0.1 ml was taken and added into 0.1 ml of virus-carrying cell suspension, thus the reaction concentrations were as follows: in the original fluid group, 0.1 mg/0.2 ml, i.e., 0.5 mg/ml; in 1×10^-1group, 0.05 mg/ml; in 1×10^-2 group, 0.005 mg/ml; in 1×10^-3 group, 0.0005 mg/ml, i.e., 0.5 μg/ml; and on the analogy of this.

[2] = Acute toxicity in mice; type: in vivo; conditions: mouse, in vivo
Procedure: Animals: Hybrid swiss strain mice (provided by Animal House of Institute of Chinese Mateia Media, China Academy of Traditional Chinese Medicine), 20-22 grams, less than 6 weeks age of both sexes fed in laboretory for 3-5 days observation and a random taking food and drinking.
Drugs: Dihydroqinghaosu-methylcarbamate and dihydroqinghaosu-benzenecarbamate.
Above two drugs in powder form were dissolved into peanut oil. The biggest dose were 2000 mg/kg and 2161 mg/kg respectively. The distances between two dose groups were 0.7 and 0.68 respectively, with 5 dose groups each drugs.
Method: The mice were given single dose of above compound respectively intragastrically, the acute intoxication manifestrations were observed the LD value (LD5, LD50 and LD95) and B value were determined by three days mortality.

[3] = system: U937 HIV-1; assay: Inhibition effect on HIV-1 infected U937 cells (macrophage cell line), HIV antigen test (IE); type: cell-based; conditions: U937 HIV-1; 50 μg/ml
Procedure: as §1, §2, §3, §4
(§5) Furthermore, a part of the compounds according to the present invention were used to test their inhibition effect on U937 cell line (macrophage cell line)according to the methods in Experiment 1.

[4] = system: U937 HIV-1; assay: Inhibition effect on HIV-1 infected U937 cells, activity of reverse transcriptase; type: cell-based; conditions: 50 μg/ml, control 24502
From the text: as §5

[5] = cited from earlier work
[6] = system: Plasmodium Berghei; assay: Peters' four day inhibition test in mice, erythrocytic stage of Plasmodium Berghei; type: in vivo; conditions: once a day D0-D3, Hybrid Kunming strain mice, read-out: SD50 (the source's name)
From the text: Effect on Erythrocytic Stage of Plasmodium Berghei 1. "Four day inhibition test" in mice To determinate the SD50 with Peters' "four day inhibition test". Hybrid Kunming strain mice, body weight 18-22 g, were inculated with 1×10^7 parasites infected RBC intraperitoneally on D0. Dihydroqinghaosu-methylcarbamate, dihydroqinghaosu-butylcarbamate, dihydroqinghaosu-benzenecarbamate and dihydroqinghaosu-4-nitrobenzenecarbamate with different concentration were given once a day from D0 -D3. Blood smears from mouse's tail were made on D4, stained with Gimsa reagent and examined under microscope to count the infected and uninfected erthrocyte to get infected rate. Inhibitory rates of different dosages were calculated by following formula. The SD50 was calculated by the simplified probit analysis: [formula]

Molecule	effect on HIV-1 (MT4), virus antigen expression ([1]; 1 × 10^-1 (50 μg/ml))	effect on HIV-1 (MT4), virus antigen expression ([1]; 1 × 10^-2 (5 μg/ml))	effect on HIV-1 (MT4), virus antigen expression ([1]; 1 × 10^-3 (0.5 μg/ml))	also measured
CO[C@H]1O[C@@H]2O[C@@]3(C)CC[C@H]4[C@H](C)CC[C@@H]([C@H]1C)[C@@]24OO3 [Artemether, reference compound]	- (positive cells were not seen in the whole well)	- (positive cells were not seen in the whole well)	± (there were only 1-2 doubtful positive cells in whole well)	effect on HIV-1 (MT4), virus antigen expression ([1]; 1 × 10^-4 (0.05 μg/ml)): + (there were 2-3 or more positive cells in the whole well); LD50 ([2]; im, I.M. (Intramuscular injection)): 263 mg/kg
C[C@H]1[C@H](OC(=O)CCC(=O)O)O[C@@H]2O[C@@]3(C)CC[C@H]4[C@H](C)CC[C@@H]1[C@@]24OO3 [Artesunate, reference compound]	- (positive cells were not seen in the whole well)	- (positive cells were not seen in the whole well)	- (positive cells were not seen in the whole well)	Antigen test (IE) [3]: - (positive cells were not seen in the whole well); effect on HIV-1 (MT4), virus antigen expression ([1]; 1 × 10^-4 (0.05 μg/ml)): + (there were 2-3 or more positive cells in the whole well); Activity of reverse transcription (CPM) [4]: 4846 CPM; LD50 ([2]; I.V. (Intravenous injection)): 769 mg/kg
Nc1ccn([C@H]2CC[C@@H](CO)O2)c(=O)n1 [DDC, di-deoxycytidine]	–	–	–	toxicity to peripheral nerves ([5]; appears 6 weeks after drug administration): toxicity to peripharal nerves
O=c1[nH]cnc2c1ncn2[C@H]1CC[C@@H](CO)O1 [DDI, di-deoxytrophicardyl]	–	–	–	toxicity to peripheral nerves ([5]; in vivo): toxicity to peripharal nerves
C[C@H]1[C@@H](O)O[C@@H]2O[C@@]3(C)CC[C@H]4[C@H](C)CC[C@@H]1[C@@]24OO3 [Dihydroqinghaosu, dihydroqinghaosu, reference compound]	- (positive cells were not seen in the whole well)	- (positive cells were not seen in the whole well)	± (there were only 1-2 doubtful positive cells in whole well)	effect on HIV-1 (MT4), virus antigen expression ([1]; 1 × 10^-4 (0.05 μg/ml)): + (there were 2-3 or more positive cells in the whole well); LD50 ([2]; po, P.O. (per os)): 765 mg/kg
CC1CCC2C(C)C(OC(=O)Nc3ccc([N+](=O)[O-])cc3)OC3OC4(C)CCC1C32OO4 (stereo not shown) [Dihydroqinghaosu-4-nitrobenzenecarbamate, Dihydroqinghaosu-P-Nitrobenzenecarbamate]	–	–	–	ED50 [6]: 0.3 mg/kg
CCCCNC(=O)OC1OC2OC3(C)CCC4C(C)CCC(C1C)C24OO3 (stereo not shown) [Dihydroqinghaosu-butylcarbamate, dihydroqinghaosu-butylcarbamate]	–	–	–	ED50 [6]: 0.25 mg/kg
CC1CCC2C(C)C(OC(=O)c3cccc(Cl)c3)OC3OC4(C)CCC1C32OO4 (stereo not shown) [Dihydroqinghaosu-m-chlorobenzoate, dihydroqinghaosu-m-chlorobenzoate]	- (positive cells were not seen in the whole well)	- (positive cells were not seen in the whole well)	+ (there were 2-3 or more positive cells in the whole well)	–
C[C@@H]1CC[C@H]2[C@@H](C)C(=O)O[C@@H]3O[C@@]4(C)CC[C@@H]1[C@]32OO4 [Qinghaosu, Qinghaosu (Artemisinin)]	- (positive cells were not seen in the whole well)	- (positive cells were not seen in the whole well)	+ (there were 2-3 or more positive cells in the whole well)	effect on HIV-1 (MT4), virus antigen expression ([1]; 1 × 10^-4 (0.05 μg/ml)): + (there were 2-3 or more positive cells in the whole well)
CCN(CC)CCOC1OC2OC3(C)CCC4C(C)CCC(C1C)C24OO3 (stereo not shown) [dihydroqinghaosu-diethyl amino ethyl ether maleate]	± (there were only 1-2 doubtful positive cells in whole well)	+ (there were 2-3 or more positive cells in the whole well)	+ (there were 2-3 or more positive cells in the whole well)	–
CC1CCC2C(C)C(OCc3cc(CN4CCOCC4)c(O)c(CN4CCOCC4)c3)OC3OC4(C)CCC1C32OO4.O=C(O)/C=C\C(=O)O (stereo not shown) [qinghaosu-3,5-dimonpholinyl methyl-4-hydroxy benzyl ether maleate]	+ (there were 2-3 or more positive cells in the whole well)	+ (there were 2-3 or more positive cells in the whole well)	+ (there were 2-3 or more positive cells in the whole well)	–
Deoxyquinghaosu-morpholinyl propanol ether maleate	- (positive cells were not seen in the whole well)	+ (there were 2-3 or more positive cells in the whole well)	- (positive cells were not seen in the whole well)	–
qinghaosu-3-morpholinylmethyl-4-hydroxybenzoate oxalate	± (there were only 1-2 doubtful positive cells in whole well)	+ (there were 2-3 or more positive cells in the whole well)	+ (there were 2-3 or more positive cells in the whole well)	–
qinghaosu-3-pyrrolidinylmethyl-4-hydroxybenzoate oxalate	- (positive cells were not seen in the whole well)	+ (there were 2-3 or more positive cells in the whole well)	- (positive cells were not seen in the whole well)	–
qinghaosu-morpholinyl propanol ether maleate	+ (there were 2-3 or more positive cells in the whole well)	+ (there were 2-3 or more positive cells in the whole well)	+ (there were 2-3 or more positive cells in the whole well)	–
qinghaosu-morpholinyl propylether maleate	- (positive cells were not seen in the whole well)	+ (there were 2-3 or more positive cells in the whole well)	+ (there were 2-3 or more positive cells in the whole well)	–
